A short description of data set [1]: Aqueous kinetic solubility in PBS pH 7.4. It counts as physicochemical. Particulars: phosphate buffered saline (PBS); aqueous kinetic solubility from 10 mM DMSO solution in PBS pH 7.4; target concentration 250 μM (final DMSO 2.5%). As to the method:
1. Aqueous kinetic solubility.
30 µL aliquots of 10 mM DMSO stock solution of the test compound were incubated in Phosphate
Buffered Saline (PBS) at pH 7.4 at 25°C for 24h. After centrifugation the dissolved compound in the
supernatant was quantified by LC-MS/MS.
Aqueous kinetic solubility was determined by UV quantification at
215 nm. […]

Data set [2] is described as follows: In vitro metabolic stability in mouse liver microsomes. Particulars: tissue homogenate, pH 7.4. The method, then:
1. Aqueous kinetic solubility. […]
3. In vitro mouse microsomial stability. […]
microsomes (Sekisui Xenotech, LCC), 0.1M Tris-HCl buffer (pH 7.4), and 10% DMSO. The final […]
After pre-incubation, the cofactors (NADPH, G6P, G6PDH, MgCl2 pre-dissolved in 0.1M Tris-HCl) were added to the incubation mixture and the incubation was continued at 37 °C for 1h. At each time point (0, 5, 15, 30, 60 min), 30µL of incubation mixture was diluted with 200 µL cold acetonitile spiked with 200 nM of warfarin as internal standard, followed by centrifugation at 3500 g for 30 min. The supernatant was further diluted with H2O (1:1) for analysis.
An aliquot of 200 µl of the supernatant was removed, and the concentration of the test compound was […]
quantified by LC-MS/MS. The percentage of the test compound remaining at each time point relative […]
to t=0 was calculated. The half-lives (t½) were determined by a one-phase decay equation using a […]
non-linear regression of compound concentration vs time.
Background: Liver microsomes are a subcellular fraction often used to study metabolism.

In the next data set the target is T1, NKCC1 (Mus musculus, UniProt P55012).
T1 construct: primary neuronal cultures of dissociated hippocampal neurons were prepared from E18 C57BL/6J mice; endogenous in cells; host or cells: primary hippocampal neurons from E18 C57BL/6J mice, 3 DIV
T1 sequence (P55012 1-1205): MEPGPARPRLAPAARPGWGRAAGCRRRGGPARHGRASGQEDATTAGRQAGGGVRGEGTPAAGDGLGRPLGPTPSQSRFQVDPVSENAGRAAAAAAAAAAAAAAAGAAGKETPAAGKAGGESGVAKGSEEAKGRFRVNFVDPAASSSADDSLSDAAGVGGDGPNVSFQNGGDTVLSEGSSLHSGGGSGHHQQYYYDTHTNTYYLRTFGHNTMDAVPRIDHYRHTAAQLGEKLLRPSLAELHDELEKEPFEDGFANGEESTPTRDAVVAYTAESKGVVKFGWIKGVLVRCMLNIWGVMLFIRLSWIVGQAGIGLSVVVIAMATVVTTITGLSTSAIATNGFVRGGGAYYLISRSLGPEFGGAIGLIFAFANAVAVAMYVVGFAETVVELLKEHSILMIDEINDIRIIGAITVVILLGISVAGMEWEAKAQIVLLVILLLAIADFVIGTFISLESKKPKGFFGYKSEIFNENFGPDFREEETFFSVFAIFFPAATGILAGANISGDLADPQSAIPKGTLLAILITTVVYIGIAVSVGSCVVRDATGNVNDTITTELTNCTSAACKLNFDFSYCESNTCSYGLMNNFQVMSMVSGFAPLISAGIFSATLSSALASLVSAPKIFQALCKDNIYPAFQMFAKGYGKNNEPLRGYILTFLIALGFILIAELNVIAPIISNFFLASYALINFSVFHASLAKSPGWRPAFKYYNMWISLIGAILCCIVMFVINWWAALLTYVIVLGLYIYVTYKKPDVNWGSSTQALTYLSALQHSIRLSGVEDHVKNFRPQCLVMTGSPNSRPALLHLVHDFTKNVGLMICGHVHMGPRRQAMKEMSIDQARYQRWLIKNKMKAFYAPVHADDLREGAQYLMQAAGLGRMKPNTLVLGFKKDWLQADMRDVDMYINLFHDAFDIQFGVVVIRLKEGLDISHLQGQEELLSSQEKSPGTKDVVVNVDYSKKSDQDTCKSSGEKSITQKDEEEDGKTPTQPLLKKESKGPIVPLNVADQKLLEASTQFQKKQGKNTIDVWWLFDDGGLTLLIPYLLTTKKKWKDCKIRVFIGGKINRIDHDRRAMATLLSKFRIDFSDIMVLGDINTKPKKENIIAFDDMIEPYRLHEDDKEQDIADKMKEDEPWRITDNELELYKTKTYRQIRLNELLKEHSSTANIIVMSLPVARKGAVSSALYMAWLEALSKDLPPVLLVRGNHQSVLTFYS
The experiment in a line: Ca2+ influx assay in immature primary neuronal cultures (indirect measure of NKCC1 inhibition). The class given is cell-based. Particulars: cultured neurons, 3 DIV. As to the method:
To perform the Ca^2+-influx assay, primary neuronal cultures of dissociated hippocampal neurons were prepared from E18 C57BL/6J mice (Charles River) as previously described[56] and plated in 96-well black-walled, clear-bottomed plates coated with poly-L-lysine (Sigma; 0.1 mg/mL in 100 mM borate buffer, pH 8.5) at a density of 30,000 cells per well. Neurons were maintained in neurobasal medium supplemented with 2% B-27 supplement, 0.5 mM glutamine, 50 U/mL of penicillin, and 50 μg/mL of streptomycin (all from Gibco). The cells were incubated at 37 °C and 5% CO2 until DIV 3 for the Ca^2+ influx assay.
At 3 DIVs, neurons were loaded with 2.5 μM of the Ca^2+-sensitive day Fluo4-AM (Invitrogen) in extracellular solution (145 mM NaCl, 5 mM KCl, 10 mM HEPES, 5.55 mM glucose, 1 mM MgCl2, and 2 mM CaCl2, pH 7.4). After 15 min, cells were washed twice with extracellular solutions and treated with bumetanide (as a positive control), DMSO (as a negative control), or each of our compounds at 10 μM or 100 μM, in extracellular solution for 15 min. Plates were then loaded onto a Spark (Tecan) multiplate reader equipped with an automatic liquid injector system, and Fluo4 fluorescence was recorded with excitation at 485 nm and emission at 535 nm. For each well, fluorescence was first recorded for 20 s of the baseline and for 20 s after delivery of GABA (100 μM). To evaluate neuronal viability, fluorescence was recorded for an additional 20 s after delivery of a depolarizing KCl stimulus (90 mM final concentration in wells). To represent the fluorescent traces in time, we normalized the fluorescence value for each time point to the average of the fluorescence value for the first 20 s of the baseline (ΔF/F0). To quantify the average effects as represented by the bar plots, we measured the maximum peak increase in ΔF/F0 fluorescence upon GABA application normalized over the maximum peak increase in ΔF/F0 fluorescence upon KCl application. We then presented in the figures all the data as a percentage of the fluorescence increase versus the value of the control DMSO.

A short description of data set [3]: In vitro mouse plasma stability. The class given is in vitro ADME. The conditions noted are these: mouse plasma at 37 °C; incubated at 5 μM (final DMSO 0.1%); read-out: t1/2 plasma.

In brackets after ≈: the same amount, converted by molar mass.

The term solubility denotes the concentration that dissolves in the medium under given conditions. Lower therefore signals a poorly soluble substance. By inhibition is commonly meant the share of the control response that was lost under treatment. A lower inhibition goes with a response near the control.

In data set [1], `CNS(=O)(=O)c1cc(C(=O)O)ccc1NCCCCCCCC(F)(F)F` [Compound 32, 3-(-N,N-Methylsulfamoyl)-4-(8,8,8-trifluorooctylamino)benzoic Acid] showed a solubility at 24 h of 242 µM (≈ 95.9 µg/mL). The half-life at 5 μM in data set [2] was more than 1 h; in data set [3], more than 2 h. On NKCC1, this compound gave an inhibition at 10 µM of 9.3 ± 1.9%. This compound had an inhibition at 100 µM at NKCC1 (100 μM) of 40.4 ± 4.8%.

`O=C(O)c1ccc(NCCCCCCCC(F)(F)F)c(S(=O)(=O)N2CCCC2)c1` [Compound 33, 3-Pyrrolidin-1-ylsulfonyl-4-(8,8,8-trifluorooctylamino)benzoic Acid] returned a solubility at 24 h in data set [1] of 66 µM (≈ 28.8 µg/mL). Moreover, the half-life at 5 μM was more than 1 h in data set [2] and more than 2 h in data set [3]. This compound also gave an inhibition at 10 µM against NKCC1 of 31.7 ± 4.1%. The compound further registered an inhibition at 100 µM at NKCC1 (100 μM) of 50.9 ± 6.7%.

As to `O=C(O)c1ccc(NCCCCCCCC(F)(F)F)c(S(=O)(=O)N2CCCCC2)c1` [Compound 34, 3-(1-Piperidylsulfonyl)-4-(8,8,8-trifluorooctylamino)benzoic Acid], in data set [1], the solubility at 24 h was determined as 13 µM (≈ 5.86 µg/mL). Also, the figures for the half-life at 5 μM in data set [2] and in data set [3] were more than 1 h and more than 2 h, respectively. In addition, at NKCC1, 10 µM produced 49.2 ± 4.5% inhibition.

`O=C(O)c1ccc(NCCCCCCCC(F)(F)F)c(S(=O)(=O)N2CCOCC2)c1` [Compound 35, 3-Morpholinosulfonyl-4-(8,8,8-trifluorooctylamino)benzoic Acid] showed a solubility at 24 h in data set [1] of 244 µM (≈ 110 µg/mL). The compound also had a half-life at 5 μM in data set [2] of more than 1 h. Moreover, on NKCC1, the inhibition at 10 µM came to 16.5 ± 2.7%. For the same compound, at NKCC1 (100 μM), the “Inhibition 100 μM Ca2+ influx (%)” value is reported as 67.7 ± 2.8% and the inhibition at 100 µM was 67.8 ± 2.8%. Moreover, the half-life at 5 μM in data set [3] was more than 2 h.

With `O=C(O)c1ccc(NCCCCCCCC(F)(F)F)c(S(=O)(=O)NC2CCCC2)c1` [Compound 36, 3-(-N-Cyclopentylsulfamoyl)-4-(8,8,8-trifluorooctylamino)benzoic Acid], the concentration in solution in data set [1] (solubility at 24 h) came to 223 µM (≈ 100 µg/mL). Further, the half-life at 5 μM in data set [2] was more than 1 h; in data set [3], more than 2 h. The compound also returned an inhibition at 10 µM against NKCC1 of 45.3 ± 5.3%.

Consider `O=C(O)c1ccc(NCCCCCCCC(F)(F)F)c(S(=O)(=O)NC2CCCCC2)c1` [Compound 37, 3-(-N-Cyclohexylsulfamoyl)-4-(8,8,8-trifluorooctylamino)benzoic Acid], for which, in data set [1], the solubility at 24 h worked out at 9 µM (≈ 4.18 µg/mL). The half-life at 5 μM was more than 1 h in data set [2] and more than 2 h in data set [3]. Also, the inhibition at 10 µM against NKCC1 was 49.5 ± 4.5%.

For the compound `O=C(O)c1ccc(NCCCCCCCC(F)(F)F)c(S(=O)(=O)NC2CCOCC2)c1` [Compound 38, 3-(N-(Tetrahydro-2H-pyran-4-yl)sulfamoyl)-4-((8,8,8-trifluorooctyl)amino)benzoic Acid], the concentration in solution in data set [1] (solubility at 24 h) came to 244 µM (≈ 114 µg/mL). The half-life at 5 μM in data set [2] was more than 1 h; in data set [3], more than 2 h. In addition, testing at 10 µM on NKCC1 gave an inhibition of 7.1 ± 2.2%. On NKCC1 (100 μM), this compound yielded an inhibition at 100 µM of 36.2 ± 3.4%.

On to `CN(C)S(=O)(=O)c1cc(C(=O)O)c(Cl)cc1NCCCCCCCC(F)(F)F` [Compound 39, 2-Chloro-5-(N,N-dimethylsulfamoyl)-4-((8,8,8-trifluorooctyl)amino)benzoic Acid], for which the solubility at 24 h in data set [1] came out at 241 µM (≈ 107 µg/mL). For the same compound, the half-life at 5 μM is more than 1 h in data set [2] and more than 2 h in data set [3]. Also, on NKCC1, the inhibition at 10 µM is 19.4 ± 2.8%. The compound further gave an inhibition at 100 µM against NKCC1 (100 μM) of 59.6 ± 3.1%.

For the compound `COc1cc(NCCCCCCCC(F)(F)F)c(S(=O)(=O)N(C)C)cc1C(=O)O` [Compound 41, 5-(N,N-Dimethylsulfamoyl)-2-methoxy-4-((8,8,8-trifluorooctyl)amino)benzoic Acid], in data set [1], the solubility at 24 h was 188 µM (≈ 82.8 µg/mL). Also, the half-life at 5 μM in data set [2] is more than 1 h; in data set [3] it was more than 2 h. This compound also gave an inhibition at 10 µM on NKCC1 of 14.2 ± 2%. The inhibition at 100 µM against NKCC1 (100 μM) worked out at 45.7 ± 4.5%.

Regarding `CCOc1cc(NCCCCCCCC(F)(F)F)c(S(=O)(=O)N(C)C)cc1C(=O)O` [Compound 42, 5-(N,N-Dimethylsulfamoyl)-2-ethoxy-4-((8,8,8-trifluorooctyl)amino)benzoic Acid], in data set [1], the solubility at 24 h stood at 43 µM (≈ 19.5 µg/mL). For the same compound, the half-life at 5 μM is more than 1 h in data set [2] and more than 2 h in data set [3]. This compound registered an inhibition at 10 µM at NKCC1 of 13.4 ± 1.1%. Besides, at 100 µM the inhibition against NKCC1 (100 μM) was 46.6 ± 3.8%.

In data set [1], `CN(C)S(=O)(=O)c1cc(C(=O)O)c(OC2CCCC2)cc1NCCCCCCCC(F)(F)F` [Compound 43, 2-(Cyclopentyloxy)-5-(N,N-dimethylsulfamoyl)-4-((8,8,8-trifluorooctyl)amino)benzoic Acid] came in with a solubility at 24 h of 11 µM (≈ 5.44 µg/mL). The half-life at 5 μM in data set [2] was 0.55 h; in data set [3], more than 2 h. Besides, the inhibition at 10 µM on NKCC1 was determined as 27.4 ± 7%.

These data come from article PMC8311653, “Design, Synthesis, In Vitro and In Vivo Characterization of Selective NKCC1 Inhibitors for the Treatment of Core Symptoms in Down Syndrome” (Journal of Medicinal Chemistry, 2021).
